Data from paper PMC5218480 (PLoS ONE, 2017).

Tested on: MV-4-11 cells
Test: Gene expression microarray analysis (Affymetrix PrimeView) and GSEA
Type: cell-based, human
Parameters: RFU PODN (11730768_x_at) / Fold change /veh PODN (11730768_x_at) / RFU LINC00158 (11744669_a_at) / Fold change /veh LINC00158 (11744669_a_at) / RFU DUSP10 (11751237_a_at) / Fold change /veh DUSP10 (11751237_a_at) / RFU ID3 (11757404_x_at) / Fold change /veh ID3 (11757404_x_at) / RFU PLEKHG5 (11737974_s_at) / Fold change /veh PLEKHG5 (11737974_s_at) / RFU LRRC4B (11730491_at) / Fold change /veh LRRC4B (11730491_at) / RFU GIMAP4 (11747438_a_at) / Fold change /veh GIMAP4 (11747438_a_at) / RFU KRT8 (11758183_x_at) / Fold change /veh KRT8 (11758183_x_at) / RFU CNN1 (11734310_a_at) / Fold change /veh CNN1 (11734310_a_at) / RFU VPS37D (11726825_at) / Fold change /veh VPS37D (11726825_at) / RFU C10orf10 (11716522_x_at) / Fold change /veh C10orf10 (11716522_x_at) / RFU KIR2DL2 /// KIR2DL4 /// KIR2DL5A /// KIR2DL5B /// KIR2DS1 /// KIR2DS2 /// KIR2DS3 /// KIR2DS4 /// KIR3DL3 /// KIR3DL3 /// KIR3DS1 (11738374_at) / Fold change /veh KIR2DL2 /// KIR2DL4 /// KIR2DL5A /// KIR2DL5B /// KIR2DS1 /// KIR2DS2 /// KIR2DS3 /// KIR2DS4 /// KIR3DL3 /// KIR3DL3 /// KIR3DS1 (11738374_at) / RFU C1QL1 (11718748_at) / Fold change /veh C1QL1 (11718748_at) / RFU TMPRSS4 (11747572_a_at) / Fold change /veh TMPRSS4 (11747572_a_at) / RFU HAMP (11756126_x_at) / Fold change /veh HAMP (11756126_x_at) / RFU RNFT2 (11725882_a_at) / Fold change /veh RNFT2 (11725882_a_at) / RFU NR4A2 (11747474_a_at) / Fold change /veh NR4A2 (11747474_a_at) / RFU ABCC12 (11746883_a_at) / Fold change /veh ABCC12 (11746883_a_at) / RFU TMEM136 (11760407_x_at) / Fold change /veh TMEM136 (11760407_x_at) / RFU CLDN22 /// WWC2 (11732394_at) / Fold change /veh CLDN22 /// WWC2 (11732394_at) / RFU HLA-DPB1 (11760878_x_at) / Fold change /veh HLA-DPB1 (11760878_x_at) / RFU SPINT1 (11716480_a_at) / Fold change /veh SPINT1 (11716480_a_at) / RFU GAP43 (11754022_s_at) / Fold change /veh GAP43 (11754022_s_at) / RFU A4GNT (11735810_at) / Fold change /veh A4GNT (11735810_at) / RFU PRB3 (11715151_x_at) / Fold change /veh PRB3 (11715151_x_at) / RFU TUBB4B (11761932_at) / Fold change /veh TUBB4B (11761932_at) / RFU CAPN14 (11732068_a_at) / Fold change /veh CAPN14 (11732068_a_at) / RFU TMCC2 (11721928_a_at) / Fold change /veh TMCC2 (11721928_a_at) / RFU IRGQ (11745062_a_at) / Fold change /veh IRGQ (11745062_a_at) / RFU FAM174B (11720279_a_at) / Fold change /veh FAM174B (11720279_a_at) / RFU TMPRSS4 (11748680_a_at) / Fold change /veh TMPRSS4 (11748680_a_at) / RFU FAM212B (11763350_a_at) / Fold change /veh FAM212B (11763350_a_at) / RFU PLEKHG5 (11743358_a_at) / Fold change /veh PLEKHG5 (11743358_a_at) / RFU ZSCAN30 (11745921_a_at) / Fold change /veh ZSCAN30 (11745921_a_at) / RFU CMKLR1 (11741424_a_at) / Fold change /veh CMKLR1 (11741424_a_at) / RFU LOC101060620 /// MAPK8IP1 (11723275_at) / Fold change /veh LOC101060620 /// MAPK8IP1 (11723275_at) / RFU SPTSSB (11747773_x_at) / Fold change /veh SPTSSB (11747773_x_at) / RFU PRSS12 (11739890_at) / Fold change /veh PRSS12 (11739890_at) / RFU BIN1 (11741810_x_at) / Fold change /veh BIN1 (11741810_x_at) / RFU WNT11 (11732464_a_at) / Fold change /veh WNT11 (11732464_a_at) / RFU C10orf10 (11716521_a_at) / Fold change /veh C10orf10 (11716521_a_at) / RFU C5orf56 (11738089_at) / Fold change /veh C5orf56 (11738089_at) / RFU CYB561 (11721691_x_at) / Fold change /veh CYB561 (11721691_x_at) / RFU ANKRD19P (11752326_a_at) / Fold change /veh ANKRD19P (11752326_a_at) / RFU OR2T12 /// OR2T33 /// OR2T8 (11738714_s_at) / Fold change /veh OR2T12 /// OR2T33 /// OR2T8 (11738714_s_at) / RFU VCAN (11748164_a_at) / Fold change /veh VCAN (11748164_a_at) / RFU JSRP1 (11732532_at) / Fold change /veh JSRP1 (11732532_at) / RFU KRTAP10-11 (11738290_x_at) / Fold change /veh KRTAP10-11 (11738290_x_at) / RFU MYO3A (11730013_a_at) / Fold change /veh MYO3A (11730013_a_at) / RFU EBF3 (11725865_a_at) / Fold change /veh EBF3 (11725865_a_at) / RFU CAMK2N1 (11719241_x_at) / Fold change /veh CAMK2N1 (11719241_x_at) / RFU C5orf56 (11738088_a_at) / Fold change /veh C5orf56 (11738088_a_at) / RFU OLFML3 (11715873_a_at) / Fold change /veh OLFML3 (11715873_a_at) / RFU LOC100653217 /// NTM (11731650_a_at) / Fold change /veh LOC100653217 /// NTM (11731650_a_at) / RFU MAPK11 (11762145_a_at) / Fold change /veh MAPK11 (11762145_a_at) / RFU FIZ1 (11724087_x_at) / Fold change /veh FIZ1 (11724087_x_at) / RFU OASL (11726364_x_at) / Fold change /veh OASL (11726364_x_at) / RFU SOX15 (11748057_x_at) / Fold change /veh SOX15 (11748057_x_at) / RFU CD79A (11719716_a_at) / Fold change /veh CD79A (11719716_a_at) / RFU HIST1H1D (11736915_at) / Fold change /veh HIST1H1D (11736915_at) / RFU CASKIN2 (11723855_a_at) / Fold change /veh CASKIN2 (11723855_a_at) / RFU LOC730098 (11760151_x_at) / Fold change /veh LOC730098 (11760151_x_at) / RFU OR4N2 (11742367_at) / Fold change /veh OR4N2 (11742367_at) / RFU PRRT2 (11749266_a_at) / Fold change /veh PRRT2 (11749266_a_at) / RFU SNX32 (11753110_a_at) / Fold change /veh SNX32 (11753110_a_at) / RFU CDHR5 (11726645_a_at) / Fold change /veh CDHR5 (11726645_a_at) / RFU RCAN1 (11760418_a_at) / Fold change /veh RCAN1 (11760418_a_at) / RFU FAM167A (11723789_a_at) / Fold change /veh FAM167A (11723789_a_at) / RFU FAM26E (11764081_at) / Fold change /veh FAM26E (11764081_at) / RFU ISYNA1 (11749810_s_at) / Fold change /veh ISYNA1 (11749810_s_at) / RFU ACY1 (11761880_at) / Fold change /veh ACY1 (11761880_at) / RFU 11764098_at / Fold change /veh 11764098_at / RFU SAMD14 (11745864_x_at) / Fold change /veh SAMD14 (11745864_x_at) / RFU NPB (11741838_a_at) / Fold change /veh NPB (11741838_a_at) / RFU TMPRSS6 (11731388_a_at) / Fold change /veh TMPRSS6 (11731388_a_at) / RFU KRTAP10-2 (11738614_at) / Fold change /veh KRTAP10-2 (11738614_at) / RFU ARHGAP8 /// PRR5-ARHGAP8 (11727945_x_at) / Fold change /veh ARHGAP8 /// PRR5-ARHGAP8 (11727945_x_at) / RFU KRTAP5-7 /// NADSYN1 (11734609_at) / Fold change /veh KRTAP5-7 /// NADSYN1 (11734609_at) / RFU RASL12 (11751679_a_at) / Fold change /veh RASL12 (11751679_a_at) / RFU CDKN2B (11736163_a_at) / Fold change /veh CDKN2B (11736163_a_at) / RFU PRF1 (11729649_at) / Fold change /veh PRF1 (11729649_at) / RFU, ZNF638 /// ZNF638-IT1 / Fold change vs veh, ZNF638 /// ZNF638-IT1 / RFU, PANK3 / Fold change vs veh, PANK3 / RFU, SH3YL1 / Fold change vs veh, SH3YL1 / RFU, ZEB2 / Fold change vs veh, ZEB2 / RFU, NRIP1 / Fold change vs veh, NRIP1 / RFU, PTTG1IP / Fold change vs veh, PTTG1IP / RFU, CAPN2 / Fold change vs veh, CAPN2 / RFU, MED14 / Fold change vs veh, MED14 / RFU, SNORA58 / Fold change vs veh, SNORA58 / RFU, C1orf63 / Fold change vs veh, C1orf63 / RFU, LRRFIP1 / Fold change vs veh, LRRFIP1 / RFU, NDUFAF7 / Fold change vs veh, NDUFAF7 / RFU, SLC12A2 / Fold change vs veh, SLC12A2 / RFU, IBTK / Fold change vs veh, IBTK / RFU, ESF1 / Fold change vs veh, ESF1 / Fold change vs veh, TMEM50B / RFU, TAOK1 / Fold change vs veh, TAOK1 / RFU, ACBD3 / Fold change vs veh, ACBD3 / RFU, TMA16 / Fold change vs veh, TMA16 / RFU, RWDD3 / Fold change vs veh, RWDD3 / RFU, BCAT1 / Fold change vs veh, BCAT1 / RFU, EDEM3 / Fold change vs veh, EDEM3 / RFU, TMEM33 / Fold change vs veh, TMEM33 / RFU, WDR75 / Fold change vs veh, WDR75 / RFU, AHCTF1 / Fold change vs veh, AHCTF1 / RFU, TFRC / Fold change vs veh, TFRC / RFU, ZDHHC17 / Fold change vs veh, ZDHHC17 / RFU, NOM1 / Fold change vs veh, NOM1 / RFU, ARL8B / Fold change vs veh, ARL8B / RFU, ZBTB11 / Fold change vs veh, ZBTB11 / RFU, TAMM41 / Fold change vs veh, TAMM41 / RFU, KIAA1704 /// LOC100996395 / Fold change vs veh, KIAA1704 /// LOC100996395 / RFU, ING1 / Fold change vs veh, ING1 / RFU, TRMT61B / Fold change vs veh, TRMT61B / RFU, FUBP3 / Fold change vs veh, FUBP3 / RFU, TP53 / Fold change vs veh, TP53 / RFU, TNKS2 / Fold change vs veh, TNKS2 / RFU, ZFP14 / Fold change vs veh, ZFP14 / RFU, ACTR2 / Fold change vs veh, ACTR2 / RFU, PPP3R1 / Fold change vs veh, PPP3R1 / RFU, PIK3R1 / Fold change vs veh, PIK3R1 / RFU, HNRNPA1 / Fold change vs veh, HNRNPA1 / RFU, RNF170 / Fold change vs veh, RNF170 / RFU, ZNF28 / Fold change vs veh, ZNF28 / RFU, RNGTT / Fold change vs veh, RNGTT / RFU, OGT / Fold change vs veh, OGT / RFU, BRD1 / Fold change vs veh, BRD1 / RFU, MARS / Fold change vs veh, MARS / RFU, ZNF655 / Fold change vs veh, ZNF655 / RFU, FAHD1 / Fold change vs veh, FAHD1 / RFU, BDP1 / Fold change vs veh, BDP1 / RFU, LRRCC1 / Fold change vs veh, LRRCC1 / RFU, ARID1A / Fold change vs veh, ARID1A / RFU, ZNF146 / Fold change vs veh, ZNF146 / RFU, ZNF330 / Fold change vs veh, ZNF330 / RFU, GPN3 / Fold change vs veh, GPN3 / RFU, C9orf123 / Fold change vs veh, C9orf123 / RFU, N4BP2L2 / Fold change vs veh, N4BP2L2 / RFU, ARFIP1 / Fold change vs veh, ARFIP1 / RFU, FAM179B / Fold change vs veh, FAM179B / RFU, BCL10 / Fold change vs veh, BCL10 / RFU, UHRF1BP1L / Fold change vs veh, UHRF1BP1L / RFU, BET1 / Fold change vs veh, BET1 / RFU, CNOT2 / Fold change vs veh, CNOT2 / RFU, ZNF268 / Fold change vs veh, ZNF268 / Fold change vs veh, ZNF507 / RFU, DGCR2 / Fold change vs veh, DGCR2 / RFU, WDSUB1 / Fold change vs veh, WDSUB1 / Fold change vs veh, HSP90B1 /// MIR3652 / RFU, ADSS / Fold change vs veh, ADSS / RFU, GK / Fold change vs veh, GK / RFU, ZNF148 / Fold change vs veh, ZNF148 / RFU, TAF9 / Fold change vs veh, TAF9 / RFU, SLC1A5 / Fold change vs veh, SLC1A5 / RFU, SLMO2 / Fold change vs veh, SLMO2 / RFU, ABCC4 / Fold change vs veh, ABCC4 / RFU, LOC101060439 /// RAP1B / Fold change vs veh, LOC101060439 /// RAP1B / RFU, RFX7 / Fold change vs veh, RFX7 / RFU, GTPBP10 / Fold change vs veh, GTPBP10 / RFU, CNEP1R1 / Fold change vs veh, CNEP1R1 / RFU, BIVM-ERCC5 /// ERCC5 / Fold change vs veh, BIVM-ERCC5 /// ERCC5 / RFU, ILF3 / Fold change vs veh, ILF3 / RFU 11762660_at / Fold change /veh 11762660_at / RFU VCAN (11757783_s_at) / Fold change /veh VCAN (11757783_s_at) / RFU DDX43 (11728927_at) / Fold change /veh DDX43 (11728927_at) / RFU KRT8 (11758188_x_at) / Fold change /veh KRT8 (11758188_x_at) / RFU NKD1 (11759106_at) / Fold change /veh NKD1 (11759106_at) / RFU SRD5A1 (11742802_a_at) / Fold change /veh SRD5A1 (11742802_a_at) / RFU TPSAB1 /// TPSB2 (11721975_s_at) / Fold change /veh TPSAB1 /// TPSB2 (11721975_s_at) / RFU GSTM3 (11746129_a_at) / Fold change /veh GSTM3 (11746129_a_at) / RFU IL23R (11737362_x_at) / Fold change /veh IL23R (11737362_x_at) / RFU TMEM51 (11727254_a_at) / Fold change /veh TMEM51 (11727254_a_at) / RFU PIWIL2 (11732686_x_at) / Fold change /veh PIWIL2 (11732686_x_at) / RFU ORM1 (11744905_x_at) / Fold change /veh ORM1 (11744905_x_at) / RFU CCDC152 (11743942_at) / Fold change /veh CCDC152 (11743942_at) / RFU ECM1 (11717891_a_at) / Fold change /veh ECM1 (11717891_a_at) / RFU IL23R (11748794_a_at) / Fold change /veh IL23R (11748794_a_at) / RFU TNFAIP8L3 (11732012_x_at) / Fold change /veh TNFAIP8L3 (11732012_x_at) / RFU MBOAT4 (11741988_at) / Fold change /veh MBOAT4 (11741988_at) / RFU 11764193_at / Fold change /veh 11764193_at / RFU TMEM53 (11763286_at) / Fold change /veh TMEM53 (11763286_at) / RFU MAGEB2 (11727129_at) / Fold change /veh MAGEB2 (11727129_at) / RFU TMEM200A (11744735_a_at) / Fold change /veh TMEM200A (11744735_a_at) / RFU CCDC152 (11751479_a_at) / Fold change /veh CCDC152 (11751479_a_at) / RFU FAM211A (11726209_a_at) / Fold change /veh FAM211A (11726209_a_at) / RFU RGS16 (11746705_a_at) / Fold change /veh RGS16 (11746705_a_at) / RFU VCAN (11755009_s_at) / Fold change /veh VCAN (11755009_s_at) / RFU RHOB (11743442_s_at) / Fold change /veh RHOB (11743442_s_at) / RFU RGS16 (11720943_a_at) / Fold change /veh RGS16 (11720943_a_at) / RFU RGS16 (11720944_at) / Fold change /veh RGS16 (11720944_at) / RFU, VPS4B / Fold change vs veh, VPS4B / RFU, CREB1 / Fold change vs veh, CREB1 / RFU, DNAJC13 / Fold change vs veh, DNAJC13 / RFU, GNAQ / Fold change vs veh, GNAQ / RFU, CDK5R1 / Fold change vs veh, CDK5R1 / RFU, ZRANB3 / Fold change vs veh, ZRANB3 / RFU, CUL4A / Fold change vs veh, CUL4A / RFU, CCNY / Fold change vs veh, CCNY / RFU, UFL1 / Fold change vs veh, UFL1 / RFU, COG3 / Fold change vs veh, COG3 / RFU, DIAPH2 / Fold change vs veh, DIAPH2 / RFU, SKA2 / Fold change vs veh, SKA2 / RFU, AFF3 / Fold change vs veh, AFF3 / RFU, LMF1 / Fold change vs veh, LMF1 / RFU, IPO11 / Fold change vs veh, IPO11 / RFU, DFFB / Fold change vs veh, DFFB / RFU, FOXP1 / Fold change vs veh, FOXP1 / RFU, CARD8 / Fold change vs veh, CARD8 / RFU, STRN3 / Fold change vs veh, STRN3 / RFU, ADK / Fold change vs veh, ADK / RFU, RASSF2 / Fold change vs veh, RASSF2 / RFU, WIPF1 / Fold change vs veh, WIPF1 / RFU, LARP1B / Fold change vs veh, LARP1B / RFU, RASA1 / Fold change vs veh, RASA1 / RFU, RB1 / Fold change vs veh, RB1 / RFU, PPFIA1 / Fold change vs veh, PPFIA1 / RFU, MAT2A / Fold change vs veh, MAT2A / RFU, CCT5 / Fold change vs veh, CCT5 / RFU, WDR92 / Fold change vs veh, WDR92 / RFU, CUX1 / Fold change vs veh, CUX1 / RFU, TTC7A / Fold change vs veh, TTC7A / RFU, TMEM135 / Fold change vs veh, TMEM135 / RFU, DEPTOR / Fold change vs veh, DEPTOR / RFU, CPM / Fold change vs veh, CPM / RFU, DNAJB6 / Fold change vs veh, DNAJB6 / RFU, CACNA2D3 / Fold change vs veh, CACNA2D3 / RFU, DTX4 / Fold change vs veh, DTX4 / RFU, TFCP2 / Fold change vs veh, TFCP2 / RFU, GMCL1 /// GMCL1P1 / Fold change vs veh, GMCL1 /// GMCL1P1 / RFU, AEBP2 / Fold change vs veh, AEBP2 / RFU, SNHG1 /// SNORD22 /// SNORD25 /// SNORD26 /// SNORD27 /// SNORD28 /// SNORD29 /// SNORD31 / Fold change vs veh, SNHG1 /// SNORD22 /// SNORD25 /// SNORD26 /// SNORD27 /// SNORD28 /// SNORD29 /// SNORD31 / Fold change (Aza/veh), C12orf56 (ProbeSet 11735607_a_at) / Fold change (ACY-1035/veh), C12orf56 (ProbeSet 11735607_a_at) / Fold change (Aza/veh), FGFR1OP (ProbeSet 11751329_s_at) / Fold change (ACY-1035/veh), FGFR1OP (ProbeSet 11751329_s_at) / Fold change (Aza/veh), VPS36 (ProbeSet 11739960_a_at) / Fold change (ACY-1035/veh), VPS36 (ProbeSet 11739960_a_at) / RFU SYPL1 (11715823_x_at) / Fold change /veh SYPL1 (11715823_x_at) / RFU IGFBP7 (11715501_s_at) / Fold change /veh IGFBP7 (11715501_s_at) / RFU REEP3 (11722064_at) / Fold change /veh REEP3 (11722064_at) / RFU IGLL1 (11728026_x_at) / Fold change /veh IGLL1 (11728026_x_at): dose or concentration left out as unconfirmed
Details: ProbeSet 11748670_a_at; LIST B

Nc1ccc(-c2cccs2)cc1NC(=O)c1ccc2c(c1)cc(C1CC1)n2CCN1CCOCC1 [ACY-1035]
RFU, PIK3R1: 70.67 RFU
